Measurements taken from article PMC5361735, “Characterization and mechanisms of anti-influenza virus metabolites isolated from the Vietnamese medicinal plant Polygonum chinense” (BMC Complementary and Alternative Medicine, 2017).
≈ marks a conversion by molar mass, not a printed value. Like-named read-outs stand apart in the source and are kept apart here.

Experiments:
in vitro = conditions: dog
[1] = system: A/Hong Kong/8/68 (H3N2, HK); conditions: for EC50: read-out: EC50 HK; for S.I. (CC50/EC50) HK: Table 2
[2] = system: influenza viruses PR8, HK and Lee; assay: CPE inhibition assay, results stated over all strains; assay type: cell-based, influenza A and B viruses; conditions: for EC50: Influenza A virus, PR8, range over the strains (and compounds named)
[3] = system: A/Hong Kong/8/68 (H3N2, HK); assay: microbe, parasite or virus in culture; conditions: Influenza A virus, H3N2, MDCK, 72 h, read-out: EC50 HK
MDCK cells [4] = assay: Cell viability (MTT) of mock-infected MDCK cells; conditions: 300 μg/mL
[5] = Cell viability (MTT) of mock-infected MDCK cells; conditions: dog, mock-infected MDCK cells
B/Lee/40 (Lee) [6] = conditions: for S.I. (CC50/EC50) Lee: Table 2
B/Lee/40 (Lee) [7] = assay: microbe, parasite or virus in culture; conditions: Influenza B virus, MDCK, 72 h, read-out: EC50 Lee
[8] = system: A/Puerto Rico/8/34 (H1N1, PR8); assay: microbe, parasite or virus in culture; conditions: Influenza A virus, MDCK, 72 h, read-out: EC50 PR8
[9] = system: A/Puerto Rico/8/34 (H1N1, PR8); conditions: Table 2
PR8 = assay: Time-of-addition plaque assay; assay type: cell-based, influenza A virus
PR8 virus (viral NP) = assay type: cell-based, influenza A virus
[10] = system: influenza viruses PR8, HK and Lee; conditions: for inhibition of plaque formation: MOI 0.001, 3 days, crystal violet
Method: MDCK cells seeded in 48-well plates were infected with the influenza viruses at an MOI of 0.001 for 1 h at 33 °C (PR8) or 35 °C (HK and Lee). Test compounds and reference antiviral compounds were serially diluted in overlay medium [MEM containing 0.5% carboxymethylcellulose (CMC; Sigma) and 2 μg/mL TPCK-trypsin]. After washing with PBS, the cells were treated with the compounds in the overlay medium for 3 days at the temperature used for virus infection. Viral plaques were counted by staining with crystal violet [20].

MDCK cells [11] = conditions: dog, 3 days, 300 μg/mL
[12] = CPE inhibition assay, PR8, HK and Lee

## CCC(CC)O[C@@H]1C=C(C(=O)O)C[C@H](N)[C@H]1NC(C)=O [OSV-C, oseltamivir carboxylate, reference compound]
In vitro
  CC50 at 3 days: > 100 µM
[1]
  EC50: < 0.005 µM
[2]; [12]
  anti-influenza activity in words: efficiently inhibited the replication of all viral strains tested
[3]
  EC50: 0.005 µM

## O=c1c(O)c(-c2ccc(O)c(O)c2)oc2cc(O)cc(O)c12 [PC1, Quercetin]
MDCK cells [4]
  cytotoxicity to MDCK cells at the highest concentration: without cytotoxicity
[5]
  CC50 at 3 days: > 300 µg/mL
B/Lee/40 (Lee) [6]
  S.I. (CC50/EC50) Lee: > 20.0
B/Lee/40 (Lee) [7]
  EC50: 15 µg/mL
[8]
  EC50: 12.6 µg/mL (≈ 41.7 µM)
[1]
  S.I. (CC50/EC50) HK: > 22.9
[3]
  EC50: 13.1 µg/mL

## COC(=O)c1ccc(O)c(O)c1 [PC2, Protocatechuic acid methyl ester]
In vitro
  CC50 at 3 days: 24.1 µg/mL
B/Lee/40 (Lee) [6]
  S.I. (CC50/EC50) Lee: 2.2
B/Lee/40 (Lee) [7]
  EC50: 11.1 µg/mL
[8]
  EC50: > 24.1 µg/mL
[3]
  EC50: > 24.1 µg/mL

## O=C(O)c1cc(O)c(O)c(O)c1 [PC3, Gallic acid]
In vitro
  CC50: 111 µg/mL (≈ 653 µM)
[3]
  EC50: 17.5 µg/mL

## O=c1oc2c(O)c(O)cc3c(=O)oc4c(O)c(O)cc1c4c23 [PC5, Ellagic acid]
[5]
  CC50 at 3 days: > 300 µg/mL
[9]
  S.I. (CC50/EC50) PR8: > 3.7
PR8
  effect on plaques, co-treatment: plaque reduction was more distinct
  effect on plaques, post-treatment: reduced viral plaque titers
  effect on plaques, pre-treatment: reduced viral plaque titers
B/Lee/40 (Lee) [6]
  S.I. (CC50/EC50) Lee: > 3.8
PR8 virus (viral NP)
  effect on viral NP production/localization: inhibit the early steps
B/Lee/40 (Lee) [7]
  EC50: 79.2 µg/mL
[8]
  EC50: 81.1 µg/mL (≈ 268 µM)
[1]
  S.I. (CC50/EC50) HK: > 4.8
[2]; CPE inhibition assay
  EC50: 14.7 to 81.1 µg/mL (≈ 48.6 to 268 µM)
[3]
  EC50: 62.4 µg/mL
[10]
  inhibition of plaque formation: inhibited plaque formation of influenza A and B viruses in a dose-dependent manner

## CC[C@H](CC[C@@H](C)[C@H]1CC[C@H]2[C@@H]3CC=C4C[C@@H](O)CC[C@]4(C)[C@H]3CC[C@]12C)C(C)C [PC6, β-Sitosterol]
[9]
  S.I. (CC50/EC50) PR8: 1.1
In vitro
  CC50: 300 µg/mL (≈ 723 µM)
B/Lee/40 (Lee) [7]
  EC50: > 300 µg/mL
[8]
  EC50: 282 µg/mL (≈ 679 µM)
[1]
  S.I. (CC50/EC50) HK: 1.0
[2]; [12]
  anti-influenza activity in words: marginal or no anti-influenza activity
[3]
  EC50: 300 µg/mL

## COC(=O)c1cc(O)c(O)c(O)c1 [PC7, Methyl gallate]
[9]
  S.I. (CC50/EC50) PR8: > 16.6
In vitro
  CC50 at 3 days: > 300 µg/mL
PR8
  effect on plaques, pre-treatment: no inhibition
  plaque reduction, co-treatment: about 35%
  reduction of viral infectivity, post-treatment: 15%
B/Lee/40 (Lee) [6]
  S.I. (CC50/EC50) Lee: > 15.6
PR8 virus (viral NP)
  effect on viral NP production/localization: inhibit the early steps
B/Lee/40 (Lee) [7]
  EC50: 19.2 µg/mL
[8]
  EC50: 18.1 µg/mL (≈ 98.3 µM)
[1]
  S.I. (CC50/EC50) HK: > 17.5
MDCK cells [11]
  reduction of cell viability: 49%
[2]; CPE inhibition assay
  EC50: 14.7 to 81.1 µg/mL (≈ 79.8 to 440 µM)
[3]
  EC50: 17.1 µg/mL
[10]; MDCK cells, concentrations higher than 33 μg/mL
  cytotoxicity seen as faint crystal violet background: marginal cytotoxicity
[10]
  inhibition of plaque formation: inhibited plaque formation of influenza A and B viruses in a dose-dependent manner

## O=C(O)/C=C/c1ccc(O)c(O)c1 [PC8, Caffeic acid]
MDCK cells [4]
  cytotoxicity to MDCK cells at the highest concentration: without cytotoxicity
[5]
  CC50 at 3 days: > 300 µg/mL
[9]
  S.I. (CC50/EC50) PR8: > 7.9
PR8
  effect on plaques, co-treatment: barely showed the efficacy at the maximum concentration
  effect on plaques, post-treatment: no significant antiviral activity
  effect on plaques, pre-treatment: no significant antiviral activity
B/Lee/40 (Lee) [6]
  S.I. (CC50/EC50) Lee: > 20.4
PR8 virus (viral NP)
  effect on viral NP production/localization: did not affect NP signal intensity or its localization
B/Lee/40 (Lee) [7]
  EC50: 14.7 µg/mL
[8]
  EC50: 37.8 µg/mL (≈ 210 µM)
[1]
  S.I. (CC50/EC50) HK: > 9.4
[2]; CPE inhibition assay
  EC50: 14.7 to 81.1 µg/mL (≈ 81.6 to 450 µM)
[3]
  EC50: 32.1 µg/mL
[10]
  inhibition of plaque formation: inhibited plaque formation of influenza A and B viruses in a dose-dependent manner

## NC(=O)c1ncn([C@@H]2O[C@H](CO)[C@@H](O)[C@H]2O)n1 [RBV, ribavirin, reference compound]
B/Lee/40 (Lee) [6]; read-out: EC50 Lee
  EC50: 17 µM
B/Lee/40 (Lee) [7]
  EC50: 26.6 µM
[1]
  EC50: 15.5 µM
[2]
  anti-influenza activity in words: efficiently inhibited the replication of all viral strains tested
[3]
  EC50: 20.5 µM
